This assay concerns P388 leukemia ip, CD2F1 mice, survival T/C. Nature of the assay: NCI In Vivo Anticancer Drug Screen. Data for tumor model P388 Leukemia (intraperitoneal) in CD2F1 (CDF1) mice. As to conditions: endpoint: median survival time, higher = longer survival. Put shortly:
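Mice carrying the transplanted tumor received test compound or vehicle. Survival was recorded in each group, and the value is the treated-group measurement divided by that of the vehicle-treated control group.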

Where [1] appears, read: dose: 50.0 mg/kg/injection, schedule: Q01DX009 (ip), vehicle: saline with Tween-80.
[2] abbreviates: dose: 100.0 mg/kg/injection, schedule: Q01DX009 (ip), vehicle: saline with Tween-80.
The mark [3] stands for this setting: dose: 200.0 mg/kg/injection, schedule: Q01DX009 (ip), vehicle: saline with Tween-80.
The mark [4] stands for this setting: dose: 50.0 mg/kg/injection, schedule: Q01DX005 (ip), vehicle: saline with Tween-80.
Setting [5] is: dose: 100.0 mg/kg/injection, schedule: Q01DX005 (ip), vehicle: saline with Tween-80.
Where [6] appears, read: dose: 200.0 mg/kg/injection, schedule: Q01DX005 (ip), vehicle: saline with Tween-80.
Where [7] appears, read: dose: 6.25 mg/kg/injection, schedule: Q01DX009 (ip), vehicle: saline with Tween-80.
Where [8] appears, read: dose: 12.5 mg/kg/injection, schedule: Q01DX009 (ip), vehicle: saline with Tween-80.
Setting [9] is: dose: 25.0 mg/kg/injection, schedule: Q01DX009 (ip), vehicle: saline with Tween-80.
The mark [10] stands for this setting: dose: 100.0 mg/kg/injection, schedule: Q04DX002 (ip), vehicle: saline with Tween-80.
Setting [11] is: dose: 200.0 mg/kg/injection, schedule: Q04DX002 (ip), vehicle: saline with Tween-80.
[12] abbreviates: dose: 50.0 mg/kg/injection, schedule: Q01DX009 (ip), vehicle: saline.
Setting [13] is: dose: 100.0 mg/kg/injection, schedule: Q01DX009 (ip), vehicle: saline.
Where [14] appears, read: dose: 200.0 mg/kg/injection, schedule: Q01DX009 (ip), vehicle: saline.
Setting [15] is: dose: 50.0 mg/kg/injection, schedule: Q01DX005 (ip), vehicle: Klucel (hydroxypropylcellulose) (HPC).
Where [16] appears, read: dose: 100.0 mg/kg/injection, schedule: Q01DX005 (ip), vehicle: Klucel (hydroxypropylcellulose) (HPC).
Where [17] appears, read: dose: 200.0 mg/kg/injection, schedule: Q01DX005 (ip), vehicle: Klucel (hydroxypropylcellulose) (HPC).
[18] abbreviates: dose: 25.0 mg/kg/injection, schedule: Q01DX005 (ip), vehicle: saline with Tween-80.
Setting [19] is: dose: 50.0 mg/kg/injection, schedule: Q01DX009 (ip), vehicle: Klucel (hydroxypropylcellulose) (HPC).
Setting [20] is: dose: 100.0 mg/kg/injection, schedule: Q01DX009 (ip), vehicle: Klucel (hydroxypropylcellulose) (HPC).
The mark [21] stands for this setting: dose: 200.0 mg/kg/injection, schedule: Q01DX009 (ip), vehicle: Klucel (hydroxypropylcellulose) (HPC).

Where “and” joins values, the source holds several entries; their conditions need not be identical. Equal entries are not always repeated. Inconclusive results and toxic doses are left out.

Consider `COc1cc2c(c(OC)c1OC)-c1ccc(OC)c(=O)cc1C(NC(=O)COc1ccccc1)CC2` (stereo unspecified), for which the T/C is, setting by setting: (dose: 0.16 mg/kg/injection, schedule: Q01DX009 (ip), vehicle: Klucel (hydroxypropylcellulose) (HPC)) 120 % of control; (dose: 1.25 mg/kg/injection, schedule: Q01DX009 (ip), vehicle: Klucel (hydroxypropylcellulose) (HPC)) 164 % of control and 171 % of control; (dose: 2.5 mg/kg/injection, schedule: Q01DX009 (ip), vehicle: Klucel (hydroxypropylcellulose) (HPC)) 104 % of control and 207 % of control.
As to `C/C(=C\c1ccccc1)c1ccccn1`, the T/C is 99 % of control (dose: 50.0 mg/kg/injection, schedule: Q01DX005 (ip), vehicle: saline); 105 % of control (dose: 100.0 mg/kg/injection, schedule: Q01DX005 (ip), vehicle: saline); 113 % of control (dose: 200.0 mg/kg/injection, schedule: Q01DX005 (ip), vehicle: saline).
Regarding `O=C(Nc1ccccc1)/C(N=Nc1cc(S(=O)(=O)O)ccc1Cl)=N/Nc1cc(S(=O)(=O)O)ccc1Cl`, the T/C was 98 % of control under setting [1], 96 % of control under setting [2] and 86 % of control under setting [3].
For `C=C(c1ccccc1)N1N=NC2CCOC21` (stereo unspecified), the T/C was 105 % of control under setting [4], 99 % of control under setting [5] and 100 % of control under setting [6].
In the case of `O=C1c2cccc([N+](=O)[O-])c2C(=O)c2nccnc21`, the T/C by setting is: (dose: 6.0 mg/kg/injection, schedule: Q01DX005 (ip), vehicle: Klucel (hydroxypropylcellulose) (HPC)) 100 % of control; (dose: 12.0 mg/kg/injection, schedule: Q01DX005 (ip), vehicle: Klucel (hydroxypropylcellulose) (HPC)) 107 % of control.
Take `COC1=C(OC)C(=O)C(Sc2ccc3ccccc3c2)=CC1=O`: the T/C reads like this: under setting [7], 103 % of control and 104 % of control; under setting [8], 104 % of control; under setting [9], 104 % of control and 119 % of control; under setting [1], 100 % of control and 111 % of control; under setting [2], 100 % of control.
Take `CCCCN1C(=O)/C(=C/c2ccc(OC)c(OC)c2OC)SC1=S`: the T/C is 93 % of control under setting [1], 92 % of control under setting [2] and 94 % of control under setting [3].
For the compound `Clc1ccc2c(ccc3cccnc32)n1`, the T/C (dose: 50.0 mg/kg/injection, schedule: Q04DX002 (ip), vehicle: saline with Tween-80) was 100 % of control; the T/C under setting [10] was 97 % of control; the T/C under setting [11] was 94 % of control.
As to `O=[N+]([O-])c1cnc(Sc2ncc([N+](=O)[O-])cn2)nc1`, the T/C is, setting by setting: (dose: 60.0 mg/kg/injection, schedule: Q01DX005 (ip), vehicle: saline) 99 % of control; (dose: 120.0 mg/kg/injection, schedule: Q01DX005 (ip), vehicle: saline) 102 % of control; (dose: 240.0 mg/kg/injection, schedule: Q01DX005 (ip), vehicle: saline) 99 % of control.
For `c1ccc(-c2cc3cc4c(cc3[nH]2)Sc2ccccc2O4)cc1`, the T/C is 97 % of control (dose: 110.0 mg/kg/injection, schedule: Q01DX001 (ip), vehicle: Klucel (hydroxypropylcellulose) (HPC)); 101 % of control (dose: 220.0 mg/kg/injection, schedule: Q01DX001 (ip), vehicle: Klucel (hydroxypropylcellulose) (HPC)); 99 % of control (dose: 440.0 mg/kg/injection, schedule: Q01DX001 (ip), vehicle: Klucel (hydroxypropylcellulose) (HPC)).
Take `CC/C(=N\NS(=O)(=O)c1ccc(C)cc1)c1ccc(Br)c(Br)c1`: the T/C is 96 % of control under setting [12], 100 % of control under setting [13] and 92 % of control under setting [14].
Take `CCN(CC)C(=O)c1c(C(=O)OC)c(C)n(NC(N)=O)c1C`: the T/C runs as follows: under setting [4], 105 % of control; under setting [5], 107 % of control; under setting [6], 108 % of control.
`CC1=N/C(=C\c2cccc(Br)c2)C(=O)O1`: the T/C under setting [15] was 98 % of control, the T/C under setting [16] is 98 % of control and the T/C under setting [17] is 98 % of control.
Turning to `CN(C)CCC(=O)C(=C/C=C/c1ccccc1)C(=O)CCN(C)C`, the T/C was 100 % of control under setting [18], 121 % of control under setting [4] and 123 % of control under setting [5].
For `C=CCC(C)(C)CC=C1C2CCC1N(C(=O)OC)N2C(=O)OC`, in that order: 107 % of control, 99 % of control and 112 % of control.
Regarding `Cc1cc(Cl)ccc1NC(=O)C1C(=O)N(c2ccc(Cl)cc2C)C(=O)/C1=N\NC(N)=O` (stereo unspecified), the T/C is 101 % of control (dose: 60.0 mg/kg/injection, schedule: Q01DX005 (ip), vehicle: saline with Tween-80); 93 % of control (dose: 120.0 mg/kg/injection, schedule: Q01DX005 (ip), vehicle: saline with Tween-80); 98 % of control (dose: 240.0 mg/kg/injection, schedule: Q01DX005 (ip), vehicle: saline with Tween-80).
Take `COc1cc(-c2cc(C(=O)O)c3cc4ccccc4cc3n2)cc(OC)c1OC`: the T/C under setting [19] is 113 % of control, the T/C under setting [20] is 110 % of control and the T/C under setting [21] was 104 % of control.
As for `N#CS.N=C=S.O=N[O-].[Co+3].[NH2-].[NH2-].[NH2-].[NH2-]`, the T/C runs as follows: under setting [9], 102 % of control; under setting [1], 89 % of control; under setting [2], 108 % of control.
Consider `CC(=NCCN=C(C)c1ccccc1O)c1ccccc1O`, for which the T/C by setting is: under setting [19], 105 % of control; under setting [20], 114 % of control; under setting [21], 115 % of control.
On to `COc1ccccc1N1CCN(CCCNc2cc(=O)n(C)c(=O)n2C)CC1`, for which the T/C by setting is: under setting [19], 98 % of control; under setting [20], 104 % of control; under setting [21], 108 % of control.
Consider `COc1ccc(N=C(C2=C(O)c3ccccc3C2=O)c2ccccc2)cc1`, for which the T/C reads like this: under setting [10], 101 % of control; under setting [11], 101 % of control; (dose: 400.0 mg/kg/injection, schedule: Q04DX002 (ip), vehicle: saline with Tween-80) 97 % of control.
Regarding `COC(=O)CS(=O)(=O)CCCS(=O)(=O)CC(=O)OC`, the T/C is 105 % of control under setting [12], 99 % of control under setting [13] and 103 % of control under setting [14].
On to `NC(=O)C(=O)c1c(-c2ccccc2)c(-c2ccccc2)c2n1CCC2`, for which the T/C is, setting by setting: under setting [15], 100 % of control; under setting [16], 99 % of control; under setting [17], 93 % of control.
For the compound `N#Cc1c(Cl)nsc1-c1ccc([N+](=O)[O-])cc1`, the T/C is 119 % of control under setting [19], 92 % of control under setting [20] and 103 % of control under setting [21].
Turning to `CC1(C)CCCC12C=NCC2` (stereo unspecified), the T/C runs as follows: under setting [7], 99 % of control; under setting [8], 95 % of control; under setting [9], 102 % of control; under setting [1], 101 % of control.
Consider `[I][Hg][CH2]C1OCCOC1[CH2][Hg][I]` (stereo unspecified), for which the T/C is, setting by setting: (dose: 100.0 mg/kg/injection, schedule: Q04DX003 (ip), vehicle: saline with Tween-80) 118 % of control; (dose: 200.0 mg/kg/injection, schedule: Q04DX003 (ip), vehicle: saline with Tween-80) 118 % of control; (dose: 400.0 mg/kg/injection, schedule: Q04DX003 (ip), vehicle: saline with Tween-80) 90 % of control.
Turning to `OC(c1ccccc1)(c1ccccc1)c1ccc(C[P+](c2ccccc2)(c2ccccc2)c2ccccc2)cc1`, the T/C is 101 % of control (dose: 1.56 mg/kg/injection, schedule: Q01DX009 (ip), vehicle: other) and 117 % of control (dose: 3.13 mg/kg/injection, schedule: Q01DX009 (ip), vehicle: other).
As for `COc1cc2c(c(OC)c1O)-c1ccc(OC)c(=O)cc1[C@@H](NC(C)=O)CC2`, the T/C (dose: 10.0 mg/kg/injection, schedule: Q01DX009 (ip), vehicle: Klucel (hydroxypropylcellulose) (HPC)) is 150 % of control and 175 % of control.
In the case of `Cc1ccc(Cl)cc1NC(=O)Nc1nccs1`, the T/C by setting is: (dose: 25.0 mg/kg/injection, schedule: Q01DX009 (ip), vehicle: Klucel (hydroxypropylcellulose) (HPC)) 93 % of control; under setting [19], 92 % of control; under setting [20], 109 % of control.

(Values after PubChem BioAssay AID330 (DTP/NCI, 2004).)
